Experimental data: patent US10420339B2, “Aqueous fungicidal composition and use thereof for combating harmful micro organisms” (BASF SE, priority 2004, dated 2019)

Legend:
Poria placenta FPRL 280 = test: Bravery test (closely based on EN 113) on impregnated wood test specimens, preventive effect against wood-destroying fungi; assay type: cell-based; conditions: test fungus PP, Pinus spp. (southern yellow pine) specimens 40x15x4 mm, loss in weight after 6 weeks, <3% by weight = satisfactory; for Limits of the effectiveness, with leaching (EN 84): with leaching according to EN 84
Description: (§1) The limits of the effectiveness of the compositions according to the invention with regard to wood-destroying basidiomycetes were determined on wood test specimens of Pinus spp. (southern yellow pine) with the dimensions 40×15×4 mm. The test method on comminuted wood test specimens, known as the Bravery test, is closely based on EN 113 and is used to determine the preventive effect of wood preservatives against wood-destroying fungi (see in this connection A. F. Bravery, Intern. Res. Group Wood Pres., Doc. No. IRG/WP/2113, 5S., Stockholm, 1978). The wood test specimens impregnated with the composition according to the invention were tested without or with the constraint of leaching according to EN 84. […] Coniophora puteana BAM Ebw. 15 and Poria placenta FPRL 280 were used as test fungi. The destruction of the wood caused by fungal infection was registered by the loss in weight of the test woods, which was determined after 6 weeks. […] The concentration limit of the effectiveness is given in two concentrations. […] The limits of the effectiveness are represented in table 4. For comparison, the values determined for a solution of the active substance in acetone are given.

[1] = tested on: Coniophora puteana BAM Ebw. 15; test: as above; assay type: cell-based; conditions: test fungus CP, Pinus spp. (southern yellow pine) specimens 40x15x4 mm, loss in weight after 6 weeks, <3% by weight = satisfactory; for Limits of the effectiveness, with leaching (EN 84): with leaching according to EN 84
Description: as §1

| Structure (SMILES) | Limits of the effectiveness, with leaching (EN 84) (Poria placenta FPRL 280) | Limits of the effectiveness, without leaching (Poria placenta FPRL 280) | Limits of the effectiveness, with leaching (EN 84) [1] | Limits of the effectiveness, without leaching [1] |
| --- | --- | --- | --- | --- |
| Fc1ccc([C@]2(Cn3cncn3)O[C@H]2c2ccccc2Cl)cc1 (racemic) [Solution of epoxiconazole, epoxiconazole] | 0.11-0.18 kg/m^3 | <0.19 kg/m^3 | 0.11-0.16 kg/m^3 | <0.19 kg/m^3 |
| CC(C)(C)C(O)(CCc1ccc(Cl)cc1)Cn1cncn1 (centres unmarked) [Solution of tebuconazole, tebuconazole] | 0.095-0.152 kg/m^3 | 0.102-0.153 kg/m^3 | <0.054 kg/m^3 | <0.052 kg/m^3 |
